Legend:
guinea pig ileum = settings: cited from earlier work
mouse vas deferens = settings: cited from earlier work
[1] = system: visceral afferent receptors; test: Sensitivity to morphine sulfate-induced bradycardia after subcutaneous pretreatment (FIG. 1); assay type: in vivo, rat; settings: rats; for effect of prior administration on sensitivity to morphine sulfate bradycardia (ED50 of morphine sulfate for greater than 10% fall in heart rate): subcutaneously 30 minutes before testing with morphine sulfate
Excerpt: Turning to FIG. 1, the ordinate thereof represents the ED50 of morphine sulfate for producing a greater than 10% fall in heart rate in rats, and serves as an index of the sensitivity of the animal to the drug. Morphine sulfate functions as a "challenge" drug for producing bradycardia, and is a traditional standard for comparison. Lower ED50 values mean that the visceral afferent receptors are more sensitive. The abscissa of FIG. 1 represents doses of dynorphin(1-13) and Leu-enkephalin, respectively, in units of micromoles per kg body weight administered subcutaneously 30 minutes before testing with morphine sulfate.
The experiments for which the data is illustrated by FIGS. 1 and 2 were conducted on male Sprague-Dawley rats weighing 250-350 g. Animals were kept under a 12-hour light-dark cycle with food and water available ad libitum. Each rat was used only once. Procedures of infusion of chemicals into the brain and for measurement of heart rate were as reported by Wei, et al., Life Science, supra, and Wei, J. Pharmacol. Exp. Ther. 21b: 12-18 (1981).
The median effective dose of drugs (ED50) for producing bradycardia was determined in animals anesthetized with 2.5% urethane solution in saline, administered 1.25 g/kg i.p. Drugs, dissolved in distilled water, were injected intravenously into a cannulated femoral vein in a volume of 0.05 ml/100 gm body weight delivered over a period of less than 3 seconds. The pH of the solutions ranged from 5.8 to 6.8 units. The blood pressure was obtained from the left cannulated carotid artery. A Narcobiosystems type 7302 cardiotachometer couple was used to integrate heart rate from the individual oscillations in blood pressure due to the heart beat, and heart rate was recorded on a polygraph recorder. The baseline heart rate (HR1) was defined as the lowest rate observed in the two minutes before drug administration. The magnitude of the change in heart rate was calculated as [(HR2 -HR1)/HR1 ]×100%, with the second heart rate (HR2) measured as the lowest rate observed in the three minutes after drug injection. […]

rats = settings: administered intravenously (i.v.); Wei et al., Life Sciences; cited from earlier work
[2] = synthetic product; cited from earlier work
mice = settings: studies with mice; cited from earlier work

Dynorphin
agonist properties (guinea pig ileum): potent agonist properties
agonist properties (mouse vas deferens): potent agonist properties

Leu-enkephalin
effect of prior administration on sensitivity to morphine sulfate bradycardia (ED50 of morphine sulfate for greater than 10% fall in heart rate) [1]: enhances sensitivity
median effective dose (ED50) for lowering of heart rate and blood pressure (rats): 1.5 µmol/kg

beta-endorphin: endogenous opioid peptide
median effective dose (ED50) for lowering of heart rate and blood pressure (rats): 0.07 µmol/kg

dynorphin(1-13)
activity in enhancing sensitivity relative to Leu-enkephalin ([1]; subcutaneously 30 minutes before morphine sulfate): about 5 times
effect of prior administration on sensitivity to morphine sulfate bradycardia (ED50 of morphine sulfate for greater than 10% fall in heart rate) [1]: enhances sensitivity
potency in bioassays versus the naturally occurring peptide [2]: as potent in bioassays as the naturally occuring peptide
analgesia (mice): relatively weak in producing analgesia

methionine-enkephalin
median effective dose (ED50) for lowering of heart rate and blood pressure (rats): 1.3 µmol/kg

From patent US4481191A, “Method for controlling blood pressure” (The Regents of the University of California, priority 1983, dated 1984)
